Source: patent US9579313B2, “Hepatitis B antiviral agents” (Novira Therapeutics, Inc., priority 2013, dated 2017)
pEC50: −log10 of the molar value.

How the values were obtained:
[1] = target: T1, HBV C150Bo capsid protein (HBV CA protein) (Hepatitis B virus genotype D subtype adw, UniProt P03147, C107A/C48A/C61A/R150C); assay: HBV assembly assay (fluorescence quenching in vitro capsid assembly); assay type: biochemical
T1 construct: amino acids 1-150, C49A, C61A, C107A, 150C; made in house; host or cells: E. coli
T1 sequence (P03147 1-150 C48A/C61A/C107A/R150C): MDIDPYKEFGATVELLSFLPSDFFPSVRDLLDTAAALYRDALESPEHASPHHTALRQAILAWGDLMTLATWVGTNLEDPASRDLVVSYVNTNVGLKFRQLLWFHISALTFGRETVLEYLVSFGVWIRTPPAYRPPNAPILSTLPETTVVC
Text: The fluorescence quenching in vitro assembly HBV assay was developed according to a method described by Zlotnick and coworkers (Nature Biotechnology 2006, 24:358). The assay is based on the observation that the C-termini of the HBV core protein cluster together during capsid formation. This assay utilizes a mutant C150 HBV capsid protein where all wild-type cysteines are mutated to alanines, but a C-terminal cysteine residue is preserved and is labeled with fluorescent BoDIPY-FL dye. […] Thus, the assay measures the ability and potency of test compounds to modulate capsid assembly by monitoring the fluorescence of the labeled capsid C150Bo protein.
In a typical assay, the mutant HBV C150 protein (amino acids 1-150, C49A, C61A, C107A, 150C) is cloned into a T7 RNA-polymerase based expression vector, expressed in E. coli and purified to homogeneity as a dimer. The purified HBV core protein is desalted and labeled with BODIPY-FL Dye.
In a non-limiting embodiment, the assembly assay is conducted in 96-well plate format. The assembly reactions are carried out in 50 mM Hepes buffer, pH 7.5 and 150 mM NaCl. The compounds are pre-incubated with the HBV CA protein for 15 min, and the assembly reactions are initiated by addition of NaCl. The reaction is allowed to continue for 1 hour at room temperature.
To determine the effect on capsid assembly, each test compound is initially screened at 4 different concentrations: 10 μM, 3 μM, 1 μM and 0.3 μM in duplicates. […] Identified primary hits are confirmed in follow-up studies as described elsewhere herein. […] EC50 values for test compounds are determined via analysis of the dose-response curve.
Selected compounds of the invention were assayed in the HBV assembly assay, as described elsewhere herein. The assembly assay was conducted in 96-well plate format. The assembly reactions were carried out in 50 mM Hepes buffer, pH 7.5 and 150 mM NaCl. The compounds were pre-incubated with the HBV CA protein for 15 min, and the assembly reactions were initiated by addition of NaCl. The reaction was allowed to continue for 1 hour at room temperature.
To determine the effect on capsid assembly, each test compound was initially screened at 4 different concentrations: 10 μM, 3 μM, 1 μM and 0.3 μM in duplicates.

[2] = tested on: HBV replication in HepG2-2.2.15 cells; assay: Dot-blot assay of HBV replication (HBV DNA levels); conditions: Hepatitis B virus, HepG2 2.2.15, 144 h, read-out: Activity in dot-blot-assay (EC50, reduction in HBV DNA levels)
Protocol: In the first anti-viral assay, the ability of compounds to inhibit HBV replication in an HBV-producing hepatoma cell line using the dot-blot method is evaluated.
Briefly, confluent monolayers of HepG2-2.2.15 cells are incubated with complete medium containing various concentrations of a test compound. Three days later, the culture medium is replaced with fresh medium containing the appropriately diluted test compound. Six days following the initial administration of the test compound, the cell culture supernatant is collected, and cell lysis is performed. The samples are applied onto Nylos membranes and DNA is immobilized to the membrane by UV cross-linking. After pre-hybridization, the HBV probe is added and the hybridization is performed overnight. The membranes are exposed to the Kodak films; antiviral activity is calculated from the reduction in HBV DNA levels (EC50).
In the first anti-viral assay, the ability of compounds to inhibit HBV replication in an HBV-producing hepatoma cell line using the dot-blot method was evaluated.
Confluent monolayers of HepG2-2.2.15 cells were incubated with complete medium containing various concentrations of a test compound. Three days later, the culture medium was replaced with fresh medium containing the appropriately diluted test compound. Six days following the initial administration of the test compound, the cell culture supernatant was collected, and cell lysis was performed. The samples were applied onto Nylos membranes and DNA was immobilized to the membrane by UV cross-linking. After pre-hybridization, the HBV probe was added and the hybridization was performed overnight. The membranes were exposed to the Kodak films; antiviral activity was calculated from the reduction in HBV DNA levels (EC50).

Row | Structure (SMILES) | pEC50 [1] | pEC50 [2] | EC50 of control compounds in assembly assay ([1]; control compounds)
1 | O=C(Nc1ccc(F)c(F)c1)c1cc(S(=O)(=O)N2CCC(O)(CO)CC2)cc2[nH]ccc12 [Compound 1304] | > 5.00 |  | 
2 | NC1CCN(S(=O)(=O)c2cc(C(=O)Nc3cc(F)c(F)c(F)c3)c3cc[nH]c3c2)CC1 [Compound 1508] | > 5.00 | > 5.00 | 
3 | COCC1(O)CCN(S(=O)(=O)c2cc(C(=O)Nc3ccc(F)c(F)c3)c3cc[nH]c3c2)CC1 [Compound 1535] | > 5.00 | > 5.00 | 
4 | O=C(Nc1ccc(F)c(Cl)c1)c1cc(S(=O)(=O)N2CC(O)C2)cc2[nH]ccc12 [Compound 1298] |  | > 5.00 | 
5 | O=C(Nc1ccc(F)c(F)c1)c1cc(S(=O)(=O)N2CCC(CO)C(O)C2)cc2[nH]ccc12 (stereo not shown) [Compound 1292] | > 5.00 |  | 
6 | O=C(Nc1cc(F)c(F)c(F)c1)c1cc(S(=O)(=O)N2CCC(O)CC2)cc2[nH]ccc12 [Compound 1287] | > 5.00 |  | 
7 | O=C(Nc1ccc(F)c(Cl)c1)c1cc(S(=O)(=O)N2CCC(O)CC2)cc2[nH]ccc12 [Compound 949] | > 5.00 | > 5.00 | 
8 | O=C(Nc1ccc(F)c(Cl)c1)c1cc(S(=O)(=O)N2CC(O)C(F)C2)cc2[nH]ccc12 (stereo not shown) [Compound 1294] | > 5.00 | > 5.00 | 
9 | COC(=O)C1=C(C)NC(c2ccccn2)=NC1c1ccc(F)cc1Cl (stereo not shown) [HAP-1, reference compound] |  |  | consistent with the literature
10 | O=C(Nc1ccc(F)c(Cl)c1)c1cc(S(=O)(=O)N2CCC(O)CC2)c2[nH]cnc2c1 [Compound 1472] |  | > 5.00 | 
11 | COCC1(O)CCN(S(=O)(=O)c2cc(C(=O)Nc3ccc(F)c(Cl)c3)c3cc[nH]c3c2)CC1 [Compound 1534] | > 5.00 |  | 
12 | O=C(Nc1ccc(F)c(Cl)c1)c1cc(S(=O)(=O)N2CCC(O)(CO)CC2)cc2[nH]ccc12 [Compound 1302] |  | > 5.00 | 
13 | COC1(CO)CCN(S(=O)(=O)c2cc(C(=O)Nc3cc(F)c(F)c(F)c3)c3cc[nH]c3c2)CC1 [Compound 1536] | > 5.00 |  | 
14 | O=C(Nc1ccc(F)c(F)c1)c1cc(S(=O)(=O)N2CC(O)C(F)C2)cc2[nH]ccc12 (stereo not shown) [Compound 1296] | > 5.00 |  | 
15 | COC1(CO)CCN(S(=O)(=O)c2cc(C(=O)Nc3ccc(F)c(Cl)c3)c3cc[nH]c3c2)CC1 [Compound 1537] |  | > 5.00 | 
16 | O=C(Nc1cc(F)c(F)c(F)c1)c1cc(S(=O)(=O)N2CCC(O)(CO)CC2)cc2[nH]ccc12 [Compound 1303] | > 5.00 |  | 
17 | O=C(Nc1ccc(F)c(F)c1)c1cc(S(=O)(=O)N2CCC(O)CC2)cc2[nH]ccc12 [Compound 1288] |  | > 5.00 | 
18 | O=C(Nc1ccc(F)c(Cl)c1)c1cc(S(=O)(=O)N2CCC(CO)C(O)C2)cc2[nH]ccc12 (stereo not shown) [Compound 1290] |  | > 5.00 | 
19 | O=C(Nc1cc(F)c(F)c(F)c1)c1cc(S(=O)(=O)N2CC(O)C2)cc2[nH]ccc12 [Compound 1299] | > 5.00 |  | 
20 | O=C(Nc1ccc(F)c(F)c1)c1cc(S(=O)(=O)N2CC(O)C2)cc2[nH]ccc12 [Compound 1300] | > 5.00 | > 5.00 | 
21 | O=C(Nc1cc(F)c(F)c(F)c1)c1cc(S(=O)(=O)N2CCC(CO)C(O)C2)cc2[nH]ccc12 (stereo not shown) [Compound 1291] | > 5.00 |  | 
22 | COCC1(O)CCN(S(=O)(=O)c2cc(C(=O)Nc3cc(F)c(F)c(F)c3)c3cc[nH]c3c2)CC1 [Compound 1533] | > 5.00 | > 5.00 | 
